Reference: the NIST ThermoML archive (doi:10.1016/j.fluid.2010.03.010)

Conditions: Liquid, Vibrating tube method

CCCC[n+]1ccn(C)c1.O=S(=O)([N-]S(=O)(=O)C(F)(F)F)C(F)(F)F
Conditions	mass density [kg/m3]
345.15 K, 101.33 kPa	1392.16
346.15 K, 101.33 kPa	1391.23
347.15 K, 101.33 kPa	1390.31
348.15 K, 101.33 kPa	1389.38
349.15 K, 101.33 kPa	1388.46
350.15 K, 101.33 kPa	1387.54
351.15 K, 101.33 kPa	1386.61
352.15 K, 101.33 kPa	1385.69
353.15 K, 100 kPa	1385.8
353.15 K, 101.33 kPa	1384.77
353.15 K, 250 kPa	1385.9
353.15 K, 500 kPa	1386.1
353.15 K, 1000 kPa	1386.5
353.15 K, 2000 kPa	1387.4
353.15 K, 5000 kPa	1390.1
353.15 K, 10000 kPa	1394.3
353.15 K, 14990 kPa	1398.4
353.15 K, 20010 kPa	1402.5
353.15 K, 24990 kPa	1406.3
353.15 K, 30010 kPa	1410.2
353.15 K, 34990 kPa	1413.8
353.15 K, 40000 kPa	1417.5
353.15 K, 45000 kPa	1421
353.15 K, 50000 kPa	1424.6
353.15 K, 54990 kPa	1427.9
353.15 K, 60010 kPa	1431.3
354.15 K, 101.33 kPa	1383.85
355.15 K, 101.33 kPa	1382.93
356.15 K, 101.33 kPa	1382.01
357.15 K, 101.33 kPa	1381.09
358.15 K, 101.33 kPa	1380.17
359.15 K, 101.33 kPa	1379.25
360.15 K, 101.33 kPa	1378.34
361.15 K, 101.33 kPa	1377.42
362.15 K, 101.33 kPa	1376.5
363.15 K, 100 kPa	1376.6
363.15 K, 101.33 kPa	1375.58
363.15 K, 250 kPa	1376.7
363.15 K, 500 kPa	1376.9
363.15 K, 1010 kPa	1377.4
363.15 K, 4990 kPa	1381
363.15 K, 10010 kPa	1385.4
363.15 K, 14990 kPa	1389.6
363.15 K, 20010 kPa	1393.8
363.15 K, 25000 kPa	1397.8
363.15 K, 30010 kPa	1401.7
363.15 K, 34990 kPa	1405.5
363.15 K, 40000 kPa	1409.2
363.15 K, 45010 kPa	1412.8
363.15 K, 50000 kPa	1416.4
363.15 K, 54990 kPa	1419.9
363.15 K, 60000 kPa	1423.4
373.15 K, 100 kPa	1367.3
373.15 K, 250 kPa	1367.4
373.15 K, 500 kPa	1367.7
373.15 K, 1010 kPa	1368.2
373.15 K, 2000 kPa	1369.1
373.15 K, 4990 kPa	1371.9
373.15 K, 10000 kPa	1376.5
373.15 K, 14990 kPa	1380.8
373.15 K, 20000 kPa	1385.1
373.15 K, 24990 kPa	1389.2
373.15 K, 30010 kPa	1393.3
373.15 K, 34970 kPa	1397.1
373.15 K, 40000 kPa	1401
373.15 K, 45000 kPa	1404.7
373.15 K, 50000 kPa	1408.4
373.15 K, 54990 kPa	1411.9
373.15 K, 60010 kPa	1415.5
393.15 K, 100 kPa	1348.8
393.15 K, 250 kPa	1348.9
393.15 K, 500 kPa	1349.2
393.15 K, 1000 kPa	1349.7
393.15 K, 2000 kPa	1350.7
393.15 K, 4990 kPa	1353.7
393.15 K, 10000 kPa	1358.6
393.15 K, 15000 kPa	1363.2
393.15 K, 20010 kPa	1367.8
393.15 K, 25000 kPa	1372.1
393.15 K, 30010 kPa	1376.4
393.15 K, 35000 kPa	1380.5
393.15 K, 40000 kPa	1384.6
393.15 K, 45000 kPa	1388.5
393.15 K, 50000 kPa	1392.4
393.15 K, 55020 kPa	1396.2
393.15 K, 60000 kPa	1399.9
413.15 K, 100 kPa	1330
413.15 K, 250 kPa	1330.2
413.15 K, 500 kPa	1330.5
413.15 K, 1000 kPa	1331
413.15 K, 2000 kPa	1332.1
413.15 K, 4990 kPa	1335.3
413.15 K, 10000 kPa	1340.6
413.15 K, 14990 kPa	1345.6
413.15 K, 20010 kPa	1350.5
413.15 K, 25000 kPa	1355.1
413.15 K, 30000 kPa	1359.7
413.15 K, 34990 kPa	1364
413.15 K, 40000 kPa	1368.4
413.15 K, 45000 kPa	1372.5
413.15 K, 50000 kPa	1376.6
413.15 K, 55000 kPa	1380.6
413.15 K, 60000 kPa	1384.5
433.15 K, 100 kPa	1311
433.15 K, 250 kPa	1311.1
433.15 K, 500 kPa	1311.4
433.15 K, 1000 kPa	1312
433.15 K, 2000 kPa	1313.2
433.15 K, 4990 kPa	1316.7
433.15 K, 10000 kPa	1322.4
433.15 K, 15000 kPa	1327.8
433.15 K, 20010 kPa	1333
433.15 K, 25010 kPa	1338
433.15 K, 30010 kPa	1342.9
433.15 K, 34990 kPa	1347.5
433.15 K, 40000 kPa	1352.1
433.15 K, 45000 kPa	1356.6
433.15 K, 50000 kPa	1360.9
433.15 K, 55000 kPa	1365.1
433.15 K, 60000 kPa	1369.3
453.15 K, 100 kPa	1291.4
453.15 K, 250 kPa	1291.7
453.15 K, 500 kPa	1292
453.15 K, 1000 kPa	1292.6
453.15 K, 1950 kPa	1294
453.15 K, 4990 kPa	1297.7
453.15 K, 10000 kPa	1303.9
453.15 K, 15000 kPa	1309.7
453.15 K, 20000 kPa	1315.3
453.15 K, 25000 kPa	1320.7
453.15 K, 30010 kPa	1325.9
453.15 K, 35000 kPa	1330.9
453.15 K, 40000 kPa	1335.9
453.15 K, 45010 kPa	1340.6
453.15 K, 50000 kPa	1345.3
453.15 K, 54990 kPa	1349.8
453.15 K, 60000 kPa	1354.3
473.15 K, 100 kPa	1271.4
473.15 K, 250 kPa	1271.7
473.15 K, 500 kPa	1272
473.15 K, 990 kPa	1272.7
473.15 K, 2000 kPa	1274.2
473.15 K, 4990 kPa	1278.2
473.15 K, 10000 kPa	1285
473.15 K, 15000 kPa	1291.2
473.15 K, 20010 kPa	1297.4
473.15 K, 24990 kPa	1303.2
473.15 K, 30010 kPa	1308.9
473.15 K, 34990 kPa	1314.2
473.15 K, 40010 kPa	1319.6
473.15 K, 45000 kPa	1324.7
473.15 K, 50000 kPa	1329.7
473.15 K, 55000 kPa	1334.5
473.15 K, 60000 kPa	1339.3
